Measurements as given in US9029414B2, “Triterpenoid compounds and methods of use thereof” (Biotechnology Research Corporation, priority 2008, dated 2015).

Tests used:
cortical neurons = test: Cortical neuron survival assay against kainate excitotoxicity (LDH); assay type: cell-based, Sprague-Dawley rats; details: kainate 5-500 μM 20 min; for protection from kainate-induced excitotoxicity (LDH release): 30 μM 24 hrs
Protocol: Cortical neurons were prepared from embryonic day 18 Sprague-Dawley rats. After the cortices had been removed from the brain, isolated cells were plated onto Poly d-Lysine (PDL) (P0899, Sigma)-coated 48 well plates (150687, NUNC) at a density of 2×10^5 cell per well using Neurobasal Medium (NB) (21103-049, Gibco) with B27 supplement (17504-044, Gibco), penicillin/streptomycin (15140, Gibco) and 1 mM L-glutamine (25030, Gibco). The cell culture was incubated at 37° C. in a humidified atmosphere of 5% CO2 in air. Medium was changed to growth medium (Neurobasal Medium with penicillin/streptomycin and B27 supplement) after 3 hours. Half medium was changed with growth medium every 2-3 days to maintain the cells until day 10 in vitro (DIV 10). Serial dilutions of samples were prepared in growth medium and DMSO was used as vehicle control. For pre-treating assay, half of the medium was removed from wells, and equal amount of diluted samples were replaced. Cells were then incubated for 2 hours at 37° C. in a humidified atmosphere of 5% CO2 in air. Culture was subsequently rinsed with Locke's solution (5 mM potassium chloride, 128 mM sodium chloride, 2.7 mM calcium chloride, 1 mM di-sodium hydrogen orthophosphate, 5 mM HEPES and 10 mM Glucose in Milli-Q water), then incubated with Locke's solution in the presence of glycine (10 μM) for 15 minutes before […] treatment. Kainate dissolved in Locke's plus glycine solution was then substituted and incubated for 20 minutes at 37° C. […] Afterwards, cells were incubated in growth medium for 18-24 hours and detected with Cytotoxicity Detection Kit (1644793, Roche). […]
FIG. 5 illustrates that DA001 protects neurons against differing concentrations of kainate. […] LDH release into the medium was then measured.
Cortical neurons were treated with DA021 or DA034 and subsequently subjected to varying concentrations of kainate. […] LDH release into the medium was then measured.

[1] = tested on: MOG-induced IL-17 in primary splenocytes; test: IL-17 Quantikine ELISA in primary splenocytes of EAE mice; assay type: cell-based; details: exogenous compound 30 μM; for decrease of IL-17 in response to exogenous compound: splenocytes of compound-treated EAE mice (100 mg/kg); for reduction in the amount of IL-17: splenocytes of vehicle-treated EAE mice, MOG 25 μg/mL, 48 hrs
Protocol: On day 21, EAE mice were sacrificed by cervical dislocation and spleens were removed aseptically. The removed spleens were then cut with sterilized scissors and strained through […] mesh (BD Bioscience) with a plunger of 5 mL syringe (BD Bioscience) in 9 mL of RPMI 1640 (Invitrogen) with 100 U/mL penicillin and 100 μg/mL streptomycin (Sigma). The cell mixture was then added to 9 mL of Lympholyte (Cedarlane Laboratories) for gradient separation of splenocytes from red bloods cells by centrifugation at 1500 g for 20 min. After the centrifugation, the lympholyte layer containing splenocytes were carefully removed and washed with 10 mL of RPMI 1640 at 800 g for 10 min for three times. The isolated splenocytes were seeded onto different plate format and cultured with RPMI 1640 medium (Invitrogen) supplement with 10% heat inactivated fetal bovine serum (Invitrogen) and 100 U/mL penicillin and 100 μg/mL streptomycin at 37° C. CO2 incubator.
Splenocytes from EAE mice were cultured at the density of 1×10^6 cells in 12-well plates (Falcon) in the absence or presence of the MOG peptide (25 μg/mL) (Hooke Laboratories), DA001 and DA021 (30 μM) with RPMI 1640 medium (Invitrogen) supplement with 10% heat inactivated fetal bovine serum (Invitrogen) and 100 U/mL penicillin and 100 μg/mL streptomycin (Sigma) for 48 h. After 48 h, the supernatants were collected by pelleting the cells at 300 g for 10 min at 4° C. 50 μL of the each sample was added to the microtiter plate provided by the manufacturer of the Quantikine ELISA assay kit (R and D systems). Additional 50 μL of assay diluents buffer was added and incubated at room temperature for 2 h. […] Subsequently, 100 μL of stop solution was added to each well and the plate was read in 450 nm wavelength on a microplate reader (Dynex Revelation 2.2).
Cells were cultured in RPMI 1640 medium supplement with 10% heat inactivated fetal bovine serum and penicillin/streptomycin, in the absence or presence of MOG (25 μg/mL, Ex) with or without DA001 or DA021 (30 μM, Ex). […] The amount of IL-17 was calculated based on the standard curve established during the assay. […]
Cells were cultured in RPMI 1640 medium supplement with 10% heat inactivated fetal bovine serum and penicillin/streptomycin, in the absence or presence of MOG (25 μg/mL, Ex) with or without DA001 (30 μM, Ex). […] The amount of IL-17 was calculated based on the standard curve established during the assay. […]
Cells were cultured in RPMI 1640 medium supplement with 10% heat inactivated fetal bovine serum and penicillin/streptomycin, in the absence or presence of MOG (25 μg/mL, Ex) with or without DA021 (30 μM, Ex). […] The amount of IL-17 was calculated based on the standard curve established during the assay. […]

| SMILES | protection from kainate-induced excitotoxicity (LDH release) (cortical neurons) | decrease of IL-17 in response to exogenous compound [1] [%] | reduction in the amount of IL-17 [1] [%] | cell death (LDH release) vs DMSO control (cortical neurons; 40 μM 24 hrs, at high concentrations of kainate) |
| --- | --- | --- | --- | --- |
| CC(=O)OC[C@]12CC[C@@H](C3(C)CO3)C1C1CCC3[C@@]4(C)CC[C@H](O)[C@@](C)(CO)[C@@H]4CC[C@@]3(C)[C@]1(C)CC2 (stereo partly shown) [DA034] | protect neurons against differing concentrations of Kainate |  |  |  |
| C=C(C)[C@@H]1CC[C@]2(/C=N/O)CC[C@]3(C)C(CCC4[C@@]5(C)CCC(=O)[C@@](C)(CO)[C@@H]5CC[C@]43C)C12 (stereo partly shown) [DA021] | protect neurons against differing concentrations of Kainate | 89 | 68 |  |
| C=C(C)[C@@H]1CC[C@]2(C(=O)O)CC[C@]3(C)C(CC[C@@H]4[C@@]5(C)CC[C@H](O[C@@H]6OC[C@H](O)[C@H](O)[C@H]6O[C@@H]6O[C@@H](C)[C@H](O)[C@@H](O)[C@H]6O)[C@@](C)(CO)[C@@H]5CC[C@]43C)[C@@H]12 (stereo partly drawn) [DA001, 3-O-[α-L-rhamnopyranosyl-(1→2)-α-L-arabinopyranosyl]-3,23-dihydroxy-20(29)-lupen-28-oic acid] |  | 51 | 65 | significant reduction in cell death |
